These results are taken from patent US12648948B2, “Methods and compositions for treating cancer” (UNITED STATES GOVERNMENT AS REPRESENTED BY THE DEPARTMENT …, priority 2017, dated 2026).

The test system of series [1] is Axl. The series can be described thus: Western blot, Axl activation (pAxl) in glioma cells. The note with it: erlotinib 48 h; patient derived GBM neurospheres and all cell lines examined. (In general: A western blot detects proteins with antibodies after separation by electrophoresis.)
Protocol: Western blot analysis was performed according to standard protocols. In all experiments, before the addition of EGF or erlotinib established cells were cultured overnight in serum free DMEM and primary GBM neurospheres were EGF starved overnight. Cells not treated with EGF or erlotinib were also serum or EGF starved. EGFR (06-847, 1 μg/ml) antibody was from Millipore. pEGFR-1068 (2236), pERK (4376) ERK (4695), p34 (9251), JNK (9252), STAT3(9139), pAkt (0915) and pSTAT3 (9131) antibodies were from Cell Signaling Technology (Danvers, MA) were used a 1/1000 dilution; TNFR1 (sc-8436), ERK2 (sc-154). Akt (sc-1619), and β-Actin (sc-47778) were from Santa Cruz Biotechnology (Dallas, TX) were used at a concentration of 1 μg/ml. GAS6 (AF885), pAxl (AF2228) and Axl (AF154) were from R&D Biosystems (Minneapolis, MN) were used at a concentration of 1 μg/ml c-JUN antibody (ab31419) was from Abcam (Cambridge, MA) and was used at 2 μg per chromatin IP reaction.
Series [2] concerns GBM. The note with it: human, in vivo; cited from earlier work.
Series [3] deals with JNK. The series can be described thus: Western blot, JNK activation (phosphorylation of JNK) in glioma cells. It counts as cell-based, human. The note with it: erlotinib; patient derived neurospheres and established GBM cell lines. The protocol: (§1) Western blot analysis was performed according to standard protocols.
In series [4] the test system is GBM9 cells. Kind of series: Cell proliferation by cell counting (trypan blue dye exclusion). It counts as cell-based, human. Particulars: 72 hours. On the procedure:
FIG. 15A GBM9 cells were plated in 6 well plated and treated with drugs as indicated. Cell proliferation was measured through cell counting using the trypan blue dye exclusion test. […] Erlotinib vs erlotinib+SP: P=0.0016, t=7.60, d.f.=4; Erlotinib vs erlotinib+U: P=0.0012, t=8.24, d.f.=4.

Series [5] has as its system JNK, Axl and ERK. Kind of series: Signal transduction in subcutaneous GBM9 tumors. It counts as in vivo, mice. The protocol:
To detect the in vivo levels of TNF, 1×10^6 GBM9 cells were injected into the right flanks of nude mice. When the subcutaneous tumor reached a volume of around 200 mm^3, the mice were treated with erlotinib to monitor the upregulation of TNF protein. The animals were dosed consecutively for 1, 2, 7 or 14 days and then sacrificed. The animals without treatment were considered as control (0-day treatment). Tumor tissues were rinsed in PBS and protein was extracted to analyze the TNF levels using ELISA and also used for western blot. To detect the protein expression in mice brain tumor tissues upon drug treatment, the same procedure was performed in orthotopic models. Additionally, with orthotopic models, mice were divided into four groups (control gavage group, erlotinib group, thalidomide group and erlotinib plus thalidomide, n=3). After 48 hours treatment tumors were harvested and subjected to Western blot and immunostaining.

Series [6] concerns Akt, STAT3. Kind of series: Western blot, Akt and STAT3 activation in glioma cells. It counts as cell-based, human. On the procedure:
as §1

Series [7] has as its system TNF. The series can be described thus: TNF mRNA (qRT-PCR) and TNF ELISA in glioma cells. In kind it is cell-based, human. On the procedure: Total RNA was isolated by TRIzol Reagent (Ambion). cDNA Reverse Transcription were performed by using High-Capacity cDNA Reverse Transcription Kit (Applied Biosystems). PCR primers were synthesized by IDT (Coralville, IA). Each PCR was carried out in triplicate in a 20 μl volume using SYBR Green Master Mix (Applied Biosystems) for 15 minutes at 95° C. for initial denaturing, followed by 40 cycles of 95° C. for 15 s and 60° C. for 60 s in ViiA 7 Real-Time PCR System (Applied Biosystems). At least two independent experiments were done. Values for each gene were normalized to expression levels of GAPDH mRNA.
2×10^6 cells were incubated in serum-free or EGF free medium containing different concentrations of erlotinib or DMSO. After 48 hours, supernatant and cell lysates were collected. Supernatant medium was concentrated 5-10-fold with Pierce protein concentrator (ThermoFisher). TNF protein concentration in supernatant, cell lysates and tissue extracts was determined by ELISA using a commercial TNF detection kit (ThermoFisher) according to manufacturer's instructions. Additionally, GAS6 protein concentration in supernatant was measured by ELISA kit (LifeSpan BioSciences).

Series [8] is described as follows: Toxicity and body weight of treated tumor-bearing mice. The note with it: in combination with thalidomide or SP600125, total of 10 days.
The test system of series [9] is GBM9 subcutaneous tumors. Kind of series: Subcutaneous GBM9 xenograft tumor growth. It counts as in vivo, athymic nude mice. The note with it: erlotinib 50 mg/kg oral gavage, SP600125 40 mg/kg i.p., thalidomide 150 mg/kg i.p., daily for 10 days. The protocol: 4 to 6 weeks old female athymic nude mice were purchased from Charles River Laboratories. The mice were housed in plastic cages (4-5 mice per cage) in a room with a 12 hour day-night cycle. 1×10^6 GBM9 cells were subcutaneously injected into the right flank of each nude mouse. […] The mice were randomly divided into control and treatment groups, mice were treated with drugs using the indicated doses. For combination treatment, both drugs were given concurrently for indicated periods. Tumor dimensions were measured by caliper every two days and tumor volumes calculated by the formula: volume=length×width×width/2. Mice were sacrificed when tumors reached over […] or 24 days from the first day of treatment.

For series [10], the system named is U87EGFRwt and U87EGFRvIII cells. The series can be described thus: AlamarBlue cell viability assay, established GBM cell lines. It counts as cell-based, human. Particulars: established GBM cell lines expressing EGFRwt or EGFRvIII, erlotinib 10 μM. The protocol: Cell viability assay was conducted using AlamarBlue cell viability assay kit (ThermoFisher) following manufacturer's protocol. Cells were cultured in Corning 96-well black plates with clear bottom (5000 cells/well). Drugs were added to cells for 72 hour following detection using POLARstar Omega Microplate Reader (excitation at 544 nm and emission at 590 nm) (BMG LABTECH, Germany).
A general note: Alamar Blue is a resazurin reagent that responds to reducing activity.

Series [11] has as its system GBM9 cells. Kind of series: Annexin-FACS assay and Caspase 3/7 activation. In kind it is cell-based, human. The note with it: Annexin V flow cytometry and Caspase 3/7 activation. The protocol: Annexin assay was performed by using Annexin—V-FLUOS Staining kit (Roche applied Science). Cells (1×10^6) were plated in 6 well plates and treated with drugs or vehicle alone. After 72 hours cells were trypsinized and washed 2 times with 1×PBS. The cells were incubated for 15 minutes at room temperature with Propidium Iodide and Annexin—V-FLUOS labeling solution in incubation buffer. Annexin and/or PI positive cells were detected by Flow Cytometry.
Caspase activity in the supernatant was measured using the Caspase-Glo 3/7 Assay (Promega, G8091) following manufacturer's instructions. Briefly, 72 hours after treatments, cells were washed by cold PBS and total cell lysates were prepared. 50 μg of total protein per sample was added per well of a 96 well plate and was incubated with 100 μl Caspase 3/7 reagent for 30 minutes. The luminescence of each sample was measured using a luminometer. All experiments included at least 3 replicates per group and were repeated 3 times.
Background: A flow cytometer gives signals particle by particle.

Series [12] has as its system GBM9 intracranial tumors. The series can be described thus: Orthotopic (intracranial) GBM9 model, survival and bioluminescence imaging. Particulars: erlotinib 50 mg/kg oral gavage and/or thalidomide 150 mg/kg i.p., 10 days; repeated with afatinib.
Protocol: For the orthotropic model, 1×10^5 GBM9 cells expressing firefly luciferase were injected into the right corpus striatum of the brains of 6-8-week-old nude mice using a stereotactic frame. […] The mice were treated with erlotinib 50 mg/kg by oral gavage and/or intraperitoneal (i.p.) injection of 150 mg/kg thalidomide for 10 consecutive days. Bioluminescence imaging (BLI) was performed to record the growth of tumor every 5 days. Kaplan-Maier survival curves were calculated using GraphPad Prism 7.0 software. Mice were monitored and sacrificed when neurological signs appeared or after 40 days.
Series [13] concerns GAS6 promoter. The series can be described thus: ChIP assay, c-Jun on the GAS6 promoter. The note with it: erlotinib 1 μM, 24 h; GBM9 and U87EGFRwt cells. In kind it is cell-based, human. The protocol: GBM9 and U87EGFRwt cells were cultured in 15 cm plate per reaction for assay. ChIP assays were carried out using ChIP chromatin immunoprecipitation kit (Millipore) following manufacturer's instructions. The ChIP-enriched DNA samples were quantified by PCR using Platinum Taq DNA polymerase (Invitrogen). Putative AP-1 binding sites on GAS6 promoter were predicted by Using TFBIND program. The following primer pairs covering AP-1 sites were used: 5′-[…]-3′ (SEQ ID NO:1) and 5′-[…]-3′ (SEQ ID NO:2).

Consider `C#Cc1cccc(Nc2ncnc3cc(OCCOC)c(OCCOC)cc23)c1` [erlotinib], for which the Axl phosphorylation result in series [1] is reported as “phosphorylation of the RTK Axl”. The “Clinical efficacy in GBM patients” value in series [2] was “also not effective”. Further, in [3], the “JNK activation (phosphorylation of JNK)” value is reported as “activation of INK”. Also, in series [4], the “Cell growth / cell numbers, combination with erlotinib” value is “significant decreases in cell numbers”. In series [5] (erlotinib), the “Time at which JNK-ERK-Axl activation subsides in GBM xenograft tumors” value is on record as “about 2 weeks”. The “Erlotinib induced activation of JNK, Axl and ERK in mouse tumors” value in [5] (subcutaneous GBM9 tumors, erlotinib 50 mg/kg) was “peaking around 2-7 days and subsiding by 14 days”. Further, in series [6] (GBM9 neurospheres, erlotinib 1 μM), the “Akt or STAT3 activation” value was “did not detect an increase in Akt or STAT3 activation”. The “STAT3 and Akt activation at higher concentration” value in [6] (glioma cells, erlotinib 10 μM or afatinib 10 μM) is “STAT3 and Akt activation are suppressed”. Also, the “TNF mRNA in GBM622 cells” value in series [7] (GBM622 neurospheres (very low EGFR), erlotinib 100 nM, 24 h) is on record as “No increase in TNF is detected”. Further, in [7] (erlotinib 100 nM (GBM9, GBM39) or 1 μM (U87EGFRwt, U87EGFRvIII)), the “TNF mRNA levels” value is “significant and rapid increase in TNF mRNA levels”. Moreover, in series [7] (supernatants of erlotinib treated cells), the “TNF protein level (ELISA)” value was “increase in TNF was confirmed at a protein level”. In addition, the Short term toxicity result in series [8] is listed as “without significant immediate short term toxicity”. In [9], the “Growth of subcutaneous tumors” value is given as “no significant effect on the growth of tumors”. Besides, the “Cell viability, erlotinib alone” value in series [10] was “completely resistant”. In series [11], the “Mode of cell death, erlotinib combined with Axl, JNK, ERK or TNF inhibition” value is given as “apoptotic cell death”. For the same compound, in series [12], the Survival of mice result is “neither erlotinib nor thalidomide alone had a significant effect”. For the same compound, in series [13], the “Binding of c-Jun to the GAS6 promoter” value is “binding of cJun to the GAS6 promoter”.
